From ChEMBL document CHEMBL4270599, “Synthesis of a 3'-C-ethynyl-β-d-ribofuranose purine nucleoside library: Discovery of C7-deazapurine analogs as potent antiproliferative nucleosides” (Eur J Med Chem, 2018)
pIC50: −log10 of the molar value.

Experiments:
TK-10 [1] = experiment: Growth inhibition of human TK10 cells assessed as cell growth at 10^-5 M incubated for 48 hrs by sulforhodamine B assay relative to control; assay type: functional; details: TK-10, 48 h, read-out: Activity
MCF7 [2] = experiment: Growth inhibition of human MCF7 cells assessed as cell growth at 10^-5 M incubated for 48 hrs by sulforhodamine B assay relative to control; assay type: functional; details: MCF7, 48 h, read-out: Activity
DU-145 = experiment: Cytotoxicity against human DU145 cells after 48 hrs by SRB assay; assay type: functional; details: DU-145, 48 h; for CC50: read-out: LC50 (the source's name); for GI50: read-out: pGI50 (converted)
MCF7 [3] = experiment: Growth inhibition of human MCF7 cells assessed as cell growth at 10^-4 M incubated for 48 hrs by sulforhodamine B assay relative to control; assay type: functional; details: MCF7, 48 h, read-out: Activity
SK-MEL-2 = experiment: Cytotoxicity against human SK-MEL-2 cells after 48 hrs by SRB assay; assay type: functional; details: SK-MEL-2, 48 h; for CC50: read-out: LC50 (the source's name); for GI50: read-out: pGI50 (converted)
HOP-62 = experiment: Growth inhibition of human HOP62 cells assessed as cell growth at 10^-6 M incubated for 48 hrs by sulforhodamine B assay relative to control; assay type: functional; details: HOP-62, 48 h, read-out: Activity
KM12 [4] = experiment: Growth inhibition of human KM12 cells assessed as cell growth at 10^-7 M incubated for 48 hrs by sulforhodamine B assay relative to control; assay type: functional; details: KM12, 48 h, read-out: Activity
HT-29 = experiment: Growth inhibition of human HT-29 cells assessed as cell growth at 10^-4 M incubated for 48 hrs by sulforhodamine B assay relative to control; assay type: functional; details: HT-29, 48 h, read-out: Activity
SF-539 = experiment: Growth inhibition of human SF539 cells assessed as cell growth at 10^-6 M incubated for 48 hrs by sulforhodamine B assay relative to control; assay type: functional; details: SF-539, 48 h, read-out: Activity
OVCAR-3 [5] = experiment: Growth inhibition of human OVCAR3 cells assessed as cell growth at 10^-7 M incubated for 48 hrs by sulforhodamine B assay relative to control; assay type: functional; details: OVCAR-3, 48 h, read-out: Activity
MCF7 [6] = experiment: Cytotoxicity against human MCF7 cells after 48 hrs by SRB assay; assay type: functional; details: MCF7, 48 h; for GI50: read-out: pGI50 (converted)
Hs-578T = experiment: Growth inhibition of human Hs 578T cells assessed as cell growth at 10^-7 M incubated for 48 hrs by sulforhodamine B assay relative to control; assay type: functional; details: read-out: Activity
NCI/ADR-RES = experiment: Growth inhibition of human NCI/ADR-RES cells assessed as cell growth at 10^-7 M incubated for 48 hrs by sulforhodamine B assay relative to control; assay type: functional; details: read-out: Activity
SF-295 = experiment: Growth inhibition of human SF295 cells assessed as cell growth at 10^-6 M incubated for 48 hrs by sulforhodamine B assay relative to control; assay type: functional; details: SF-295, 48 h, read-out: Activity
OVCAR-4 = experiment: Growth inhibition of human OVCAR4 cells assessed as cell growth at 10^-4 M incubated for 48 hrs by sulforhodamine B assay relative to control; assay type: functional; details: OVCAR-4, 48 h, read-out: Activity
[7] = Antiproliferative activity against HELF cells after 4 days by Coulter counter method; assay type: cell-based; details: Homo sapiens, 96 h
A498 = experiment: Cytotoxicity against human A498 cells after 48 hrs by SRB assay; assay type: functional; details: A498, 48 h; for GI50: read-out: pGI50 (converted)
OVCAR-3 [8] = experiment: Growth inhibition of human OVCAR3 cells assessed as cell growth at 10^-8 M incubated for 48 hrs by sulforhodamine B assay relative to control; assay type: functional; details: OVCAR-3, 48 h, read-out: Activity
EKVX = experiment: Cytotoxicity against human EKVX cells after 48 hrs by SRB assay; assay type: functional; details: for GI50: read-out: pGI50 (converted)
M14 [9] = experiment: Growth inhibition of human M14 cells assessed as cell growth at 10^-7 M incubated for 48 hrs by sulforhodamine B assay relative to control; assay type: functional; details: M14, 48 h, read-out: Activity
TK-10 [10] = experiment: Growth inhibition of human TK10 cells assessed as cell growth at 10^-8 M incubated for 48 hrs by sulforhodamine B assay relative to control; assay type: functional; details: TK-10, 48 h, read-out: Activity
UO-31 = experiment: Growth inhibition of human UO31 cells assessed as cell growth at 10^-8 M incubated for 48 hrs by sulforhodamine B assay relative to control; assay type: functional; details: UO-31, 48 h, read-out: Activity
U-251 = experiment: Cytotoxicity against human U251 cells after 48 hrs by SRB assay; assay type: functional; details: U-251, 48 h; for CC50: read-out: pLC50 (the source's name) (converted)
NCI-H226 = experiment: Growth inhibition of human NCI-H226 cells assessed as cell growth at 10^-7 M incubated for 48 hrs by sulforhodamine B assay relative to control; assay type: functional; details: NCI-H226, 48 h, read-out: Activity
KM12 [11] = experiment: Growth inhibition of human KM12 cells assessed as cell growth at 10^-5 M incubated for 48 hrs by sulforhodamine B assay relative to control; assay type: functional; details: KM12, 48 h, read-out: Activity
ACHN [12] = experiment: Cytotoxicity against human ACHN cells after 48 hrs by SRB assay; assay type: functional; details: for CC50: read-out: LC50 (the source's name)
SW-620 = experiment: Growth inhibition of human SW620 cells assessed as cell growth at 10^-8 M incubated for 48 hrs by sulforhodamine B assay relative to control; assay type: functional; details: SW-620, 48 h, read-out: Activity
MDA-MB-435 = experiment: Growth inhibition of human MDA-MB-435 cells assessed as cell growth at 10^-8 M incubated for 48 hrs by sulforhodamine B assay relative to control; assay type: functional; details: MDA-MB-435, 48 h, read-out: Activity
HCC 2998 = experiment: Growth inhibition of human HCC2998 cells assessed as cell growth at 10^-6 M incubated for 48 hrs by sulforhodamine B assay relative to control; assay type: functional; details: HCC 2998, 48 h, read-out: Activity
ACHN [13] = experiment: Growth inhibition of human ACHN cells assessed as cell growth at 10^-7 M incubated for 48 hrs by sulforhodamine B assay relative to control; assay type: functional; details: read-out: Activity
M14 [14] = experiment: Growth inhibition of human M14 cells assessed as cell growth at 10^-8 M incubated for 48 hrs by sulforhodamine B assay relative to control; assay type: functional; details: M14, 48 h, read-out: Activity
SK-MEL-28 = experiment: Growth inhibition of human SK-MEL-28 cells assessed as cell growth at 10^-8 M incubated for 48 hrs by sulforhodamine B assay relative to control; assay type: functional; details: SK-MEL-28, 48 h, read-out: Activity
SK-MEL-5 = experiment: Cytotoxicity against human SK-MEL-5 cells after 48 hrs by SRB assay; assay type: functional; details: SK-MEL-5, 48 h; for GI50: read-out: pGI50 (converted); for CC50: read-out: pLC50 (the source's name) (converted)
[15] = read-out: LC50 (the source's name)
[16] = read-out: pLC50 (the source's name) (converted)

SMILES: C#C[C@@]1(O)[C@@H](CO)O[C@@H](n2cc(F)c3c(N)ncnc32)[C@@H]1O
- growth at 10 µM (TK-10 [1]): -9%
- growth at 10 µM (MCF7 [2]): 1%
- CC50 (DU-145): > 100 µM
- TGI (DU-145; read-out: TGI): 13.4 µM
- GI50 (DU-145): 0.355 µM
- TGI (DU-145; read-out: pTGI (converted)): 13.5 µM
- growth at 100 µM (MCF7 [3]): -21%
- CC50 (SK-MEL-2): > 100 µM
- TGI (SK-MEL-2; read-out: TGI): 2.87 µM
- GI50 (SK-MEL-2): 0.447 µM
- TGI (SK-MEL-2; read-out: pTGI (converted)): 2.88 µM
- growth at 1 µM (HOP-62): 33%
- growth at 0.1 µM (KM12 [4]): 85%
- growth at 100 µM (HT-29): 2%
- growth at 1 µM (SF-539): 60%
- growth at 0.1 µM (OVCAR-3 [5]): 107%
- CC50 (MCF7 [6]; [15]): > 100 µM
- GI50 (MCF7 [6]): 0.102 µM
- growth at 0.1 µM (Hs-578T): 106%
- growth at 0.1 µM (NCI/ADR-RES): 76%
- growth at 1 µM (SF-295): 40%
- growth at 100 µM (OVCAR-4): -25%
- pIC50 [7]: 7.12
- TGI (A498; read-out: TGI): 2.27 µM
- GI50 (A498): 0.724 µM
- CC50 (A498; [16]): 5.89 µM
- TGI (A498; read-out: pTGI (converted)): 2.29 µM
- growth at 0.01 µM (OVCAR-3 [8]): 106%
- CC50 (EKVX; [15]): > 100 µM
- TGI (EKVX; read-out: TGI): 11.3 µM
- GI50 (EKVX): 0.676 µM
- TGI (EKVX; read-out: pTGI (converted)): 11.2 µM
- growth at 0.1 µM (M14 [9]): 95%
- growth at 0.01 µM (TK-10 [10]): 95%
- growth at 0.01 µM (UO-31): 94%
- GI50 (U-251; read-out: GI50): 0.631 µM
- TGI (U-251; read-out: TGI): 11.6 µM
- GI50 (U-251; read-out: pGI50 (converted)): 0.631 µM
- CC50 (U-251): > 100 µM
- TGI (U-251; read-out: pTGI (converted)): 11.7 µM
- growth at 0.1 µM (NCI-H226): 95%
- growth at 10 µM (KM12 [11]): 7%
- GI50 (ACHN [12]): 0.24 µM
- CC50 (ACHN [12]): > 100 µM
- TGI (ACHN [12]; read-out: TGI): > 100 µM
- TGI (ACHN [12]; read-out: pTGI (converted)): > 100 µM
- growth at 0.01 µM (SW-620): 97%
- growth at 0.01 µM (MDA-MB-435): 98%
- growth at 1 µM (HCC 2998): 37%
- growth at 0.1 µM (ACHN [13]): 75%
- growth at 0.01 µM (M14 [14]): 101%
- growth at 0.01 µM (SK-MEL-28): 102%
- TGI (SK-MEL-5; read-out: TGI): 1.33 µM
- GI50 (SK-MEL-5): 0.269 µM
- CC50 (SK-MEL-5): 4.17 µM
- TGI (SK-MEL-5; read-out: pTGI (converted)): 1.35 µM

SMILES: C#C[C@@]1(O)[C@@H](CO)O[C@@H](n2ccc3c(N)ncnc32)[C@@H]1O
- growth at 10 µM (TK-10 [1]): -2%
- growth at 10 µM (MCF7 [2]): -4%
- CC50 (DU-145): > 100 µM
- TGI (DU-145; read-out: TGI): 6.55 µM
- GI50 (DU-145): 0.562 µM
- TGI (DU-145; read-out: pTGI (converted)): 6.61 µM
- growth at 100 µM (MCF7 [3]): -53%
- CC50 (SK-MEL-2): > 100 µM
- TGI (SK-MEL-2; read-out: TGI): 6.32 µM
- GI50 (SK-MEL-2): 1.38 µM
- TGI (SK-MEL-2; read-out: pTGI (converted)): 6.31 µM
- growth at 1 µM (HOP-62): 77%
- growth at 0.1 µM (KM12 [4]): 102%
- growth at 100 µM (HT-29): -17%
- growth at 1 µM (SF-539): 88%
- growth at 0.1 µM (OVCAR-3 [5]): 106%
- TGI (MCF7 [6]; read-out: TGI): 5.66 µM
- GI50 (MCF7 [6]): 0.24 µM
- CC50 (MCF7 [6]; [16]): 85.1 µM
- TGI (MCF7 [6]; read-out: pTGI (converted)): 5.62 µM
- growth at 0.1 µM (Hs-578T): 100%
- growth at 0.1 µM (NCI/ADR-RES): 92%
- growth at 1 µM (SF-295): 74%
- growth at 100 µM (OVCAR-4): -100%
- TGI (A498; read-out: TGI): 3.74 µM
- GI50 (A498): 1.66 µM
- TGI (A498; read-out: pTGI (converted)): 3.72 µM
- growth at 0.01 µM (OVCAR-3 [8]): 105%
- TGI (EKVX; read-out: TGI): 5.43 µM
- GI50 (EKVX): 1.51 µM
- CC50 (EKVX; [16]): > 100 µM
- TGI (EKVX; read-out: pTGI (converted)): 5.37 µM
- growth at 0.1 µM (M14 [9]): 99%
- growth at 0.01 µM (TK-10 [10]): 101%
- growth at 0.01 µM (UO-31): 94%
- TGI (U-251; read-out: TGI): 11.8 µM
- GI50 (U-251; read-out: pGI50 (converted)): 2.45 µM
- CC50 (U-251): > 100 µM
- TGI (U-251; read-out: pTGI (converted)): 11.7 µM
- growth at 0.1 µM (NCI-H226): 111%
- growth at 10 µM (KM12 [11]): 2%
- GI50 (ACHN [12]): 0.562 µM
- CC50 (ACHN [12]): > 100 µM
- TGI (ACHN [12]; read-out: TGI): 4.48 µM
- TGI (ACHN [12]; read-out: pTGI (converted)): 4.47 µM
- growth at 0.01 µM (SW-620): 72%
- growth at 0.01 µM (MDA-MB-435): 92%
- growth at 1 µM (HCC 2998): 74%
- growth at 0.1 µM (ACHN [13]): 101%
- growth at 0.01 µM (M14 [14]): 93%
- growth at 0.01 µM (SK-MEL-28): 93%
- TGI (SK-MEL-5; read-out: TGI): 2.96 µM
- GI50 (SK-MEL-5): 1.55 µM
- CC50 (SK-MEL-5): 5.62 µM
- TGI (SK-MEL-5; read-out: pTGI (converted)): 2.95 µM
